Tests used:
[1] = format: physicochemical; settings: pH 7.4
MI rat models = test system: MI rat models; design: species or system Sprague-Dawley rats; settings: in vivo, iv, 10 mg/kg
[2] = male, Sprague-Dawley, rat, in vivo, 10 mg/kg
in vivo = settings: male, Sprague-Dawley, rat, iv, 10 mg

Q: Which “time to complete release of Sch B” value [1] does the source give for COc1cc2c(c(OC)c1OC)-c1c(cc3c(c1OC)OCO3)CC(C)C(C)C2 (centres unmarked) [Sch B solution, Schisandrin B] here?
A: The value was at most 2 h.

Q: And the infarct size (MI rat models)?
A: The infarct size was 36.5%.

Q: What about the “time until cleared from the circulation” value [2] of the same compound?
A: Its value is at most 4 h.

Q: What about the AUC(0-inf) (in vivo) of the same compound?
A: Its AUC(0-inf) is 13700 ± 1540 ng·h/mL.

Q: And the AUC(0-t) (in vivo)?
A: Its AUC(0-t) is 12400 ± 1310 ng·h/mL.

Q: What about the Vd (in vivo) of the same compound?
A: The Vd was 18.5 ± 2.61 L/kg.

Q: And the clearance (in vivo)?
A: The clearance was 65.7 mL/min/kg.

Q: What about the half-life (in vivo) of the same compound?
A: The half-life was 55.8 ± 5.4 min.

Source: article PMC5627750 (International Journal of Nanomedicine, 2017)
